How the values were obtained:
[1] = tested on: RAS-mutant NSCLC cell lines; experiment: Induction of apoptosis (caspase 3/7 activation) in panel of RAS-mutant NSCLC cell lines; format: cell-based; settings: for Response Rate (sensitivity/total lines tested), Cell Apoptosis (capsase 3/7): Ras mut NSCLC cell lines, caspase 3/7 activation, 24 hours of treatment
Experimental: (§1) A panel of 24 non-small cell lung carcinoma (NSCLC) cell lines harboring RAS mutations was analyzed for genomic alterations, gene expression profiling and protein phosphorylation in MAPK and PI3K pathways. Inhibition of cell growth and induction of apoptosis were determined by CellTiter-Glo® and caspase 3/7 activation assays after 72 and 24 hours of treatment, respectively.

[2] = tested on: RAS-mutant NSCLC cell lines; experiment: Inhibition of cell growth (CellTiter-Glo) in panel of RAS-mutant NSCLC cell lines; settings: for Single agent activity (in words): agent alone, cell growth inhibition and apoptosis; for Response Rate (sensitivity/total lines tested), Cell growth inhibition: Ras mut NSCLC cell lines, CellTiter-Glo, 72 hours of treatment
Experimental: Cells are plated in 384-well plates at 500 cells/well in culture media appropriate for each cell type, supplemented with 10% FBS and 1% penicillin/streptomycin, and incubated overnight at 37° C., 5% CO2. Cells are treated in a grid manner with dilution of Compound A^2 (20 dilutions, including no compound, of 2-fold dilutions starting from 1-20 μM depending of compound) from left to right on 384-well plate and also treated with Compound B^2 (20 dilutions, including no compound, of 2-fold dilutions starting from 1-20 μM depending of compound) from top to bottom on 384-well plate and incubated as above for a further 72 hours. In some instances compounds are added in a staggered manner and incubation time can be extended up to 7 days. Cell growth is measured using CellTiter-Glo® reagent according to the manufacturer's protocol and signals are read on a PerkinElmer EnVision™ reader set for luminescence mode with a 0.5-second read.
Results are expressed as a percentage of the t=0 value and plotted against compound(s) concentration. The t=0 value is normalized to 100% and represents the number of cells present at the time of compound addition. The cellular response is determined for each compound and/or compound combination using a 4- or 6-parameter curve fit of cell viability against concentration using the IDBS XLfit plug-in for Microsoft Excel software and determining the concentration required for 50% inhibition of cell growth (gIC50). Background correction is made by subtraction of values from wells containing no cells.
as §1

| Molecule | Response Rate (sensitivity/total lines tested), Cell Apoptosis (capsase 3/7) [1] | Single agent activity (in words) ([2]; RAS-mutant NSCLC lines) | Response Rate (sensitivity/total lines tested), Cell growth inhibition [2] | Apoptosis (in words) ([1]; RAS-mutant NSCLC lines, single agent) | Cell growth inhibition (in words) ([2]; RAS-mutant NSCLC lines) |
| --- | --- | --- | --- | --- | --- |
| Cn1ncc(Cl)c1-c1cc(C(=O)N[C@H](CN)Cc2cccc(F)c2)sc1Cl [AKT inhibitor, N-{(1S)-2-amino-1-[(3-fluorophenyl)methyl]ethyl}-5-chloro-4-(4-chloro-1-methyl-1H-pyrazol-5-yl)-2-thiophenecarboxamide] | 0% (0/9) | little or no activity | 6% (1/18) | – | – |
| Cc1nc(Nc2ncc(C(=O)Nc3c(C)cccc3Cl)s2)cc(N2CCN(CCO)CC2)n1 [Dasatinib] | 0% (0/10) | – | 20% (2/10) | – | – |
| C#Cc1cccc(Nc2ncnc3cc(OCCOC)c(OCCOC)cc23)c1 [Erlotinib] | 0% (0/24) | little or no activity | 0% (0/24) | – | – |
| COc1ncc(-c2ccc3nccc(-c4ccnnc4)c3c2)cc1NS(=O)(=O)c1ccc(F)cc1F [PI3k/mTOR inhibitor, 2,4-difluoro-N-{2-(methyloxy)-5-[4-(4-pyridazinyl)-6-quinolinyl]-3-pyridinyl}benzenesulfonamide] | 6% (1/16) | – | 69% (9/13) | little apoptosis | potently inhibited cell growth |
| Nc1nc2[nH]cc(CCc3ccc(C(=O)N[C@@H](CCC(=O)O)C(=O)O)cc3)c2c(=O)[nH]1 [Pemtrexed] | – | – | 38% (4/9) | – | – |
| dihydroxy-12-[(2R)-1-[(1S,3R,4R)-4-(2-hydroxyethoxy)-3-methoxycyclohexyl]propan-2-yl]-19,30-dimethoxy-15,17,21,23,29,35-hexamethyl-11,36-dioxa-4-azatricyclo[30.3.1.0^4.9]hexatriaconta-16,24,26,28-tetraene-2,3,10,14,20-pentone [Everolimus] | 0% (0/24) | little or no activity | 8% (2/24) | – | – |

Source: patent US20130231346A1, “METHODS OF TREATING CANCER” (GLAXOSMITHKLINE INTELLECTUAL PROPERTY (NO.2) LIMITED, priority 2010, published 2013)
